From US11261186B2, “Biaryl derivative as GPR120 agonist” (LG CHEM, LTD., priority 2014, dated 2022)

Target: T1, hGPR120 (Homo sapiens, UniProt Q5NUL3)
T1 construct: expressed in transfected cells; host or cells: CHO-K1
T1 sequence (Q5NUL3 1-361): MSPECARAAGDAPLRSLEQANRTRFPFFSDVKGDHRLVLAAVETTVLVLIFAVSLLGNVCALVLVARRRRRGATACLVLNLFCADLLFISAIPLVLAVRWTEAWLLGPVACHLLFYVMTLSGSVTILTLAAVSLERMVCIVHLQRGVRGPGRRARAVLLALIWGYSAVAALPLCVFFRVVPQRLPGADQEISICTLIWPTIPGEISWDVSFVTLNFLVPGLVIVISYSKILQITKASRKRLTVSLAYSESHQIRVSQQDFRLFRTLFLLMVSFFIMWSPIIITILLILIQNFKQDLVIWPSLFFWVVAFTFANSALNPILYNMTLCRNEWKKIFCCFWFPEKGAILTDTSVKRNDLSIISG
Experiment: Measurement of Activity of GPR120 Agonist (Cell-Based Assay), Calcium 5 dye fluorescence
Settings: CHO-K1 cells expressing Ga16 and hGPR120
Summary of the method: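 After an 18 h incubation at 37 °C, the transfected CHO-K1 cells (Gα16, hGPR120) received Calcium 5 dye for 1 h; compound dilutions in 0.5% DMSO were then injected and emission at 525 nm recorded, with values given as % of the vehicle response.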

Structure (SMILES)	EC50 [nM]
CCCOc1cc(C(F)(F)F)nc(-c2cc(F)c(N3CCC(CC(=O)O)CC3)c(F)c2)n1 [Example 618, {1-[2,6-difluoro-4-(4-propoxy-6-trifluoromethyl-pyrimidin-2-yl)-phenyl]-piperidin-4-yl}-acetic acid]	2000 to 20000
CC(C)Oc1cccc(-c2cc(F)c(OCCCC(=O)O)c(Cl)c2)n1 [Example 402, 4-[2-chloro-6-fluoro-4-(6-isopropoxy-pyridin-2-yl)-phenoxy]-butyric acid]	< 200
Cc1cc2cc(Cl)cc(-c3cc(F)c(OCCCC(=O)O)c(F)c3)c2o1 [Example 518, 4-[4-(5-chloro-2-methyl-benzofuran-7-yl)-2,6-difluoro-phenoxy]-butyric acid]	< 200
CC(C)(CCCC(=O)O)c1ccc(-c2cccnc2SC2CCCC2)cc1 [Example 163, 5-[4-(2-cyclopentylsulfanyl-pyridin-3-yl)-phenyl]-5-methyl-hexanoic acid]	200 to 2000
CC(C)COc1nc(-c2cc(F)c(N3CCC(CC(=O)O)CC3)c(F)c2)ncc1F [Example 597, {1-[2,6-difluoro-4-(5-fluoro-4-isobutoxy-pyrimidin-2-yl)-phenyl]-piperidin-4-yl}-acetic acid]	200 to 2000
CCCCOc1cncc(-c2cc(F)c(N3CCC(CC(=O)O)CC3)c(F)c2)n1 [Example 343, 2-[1-[4-(6-butoxypyrazin-2-yl)-2,6-difluoro-phenyl]-4-piperidyl]acetic acid]	< 200
O=C(O)CCCOc1c(F)cc(-c2ccc(Cl)c(OC3CCC3)n2)cc1F [Example 533, 4-[4-(5-chloro-6-cyclobutoxy-pyridin-2-yl)-2,6-difluoro-phenoxy]-butyric acid]	200 to 2000
O=C(O)CCC1CCc2cc(-c3cccnc3OC3CCC3)ccc2S1 (stereo not drawn) [Example 278, 3-[6-(2-cyclobutoxy-pyridin-3-yl)-thiochroman-2-yl]-propionic acid]	< 200
O=C(O)COCC(F)(F)c1ccc(-c2cccnc2OC2CCCC2)cc1 [Example 172, {2-[4-(2-cyclopentyloxy-pyridin-3-yl)-phenyl]-2,2-difluoro-ethoxy}-acetic acid]	2000 to 20000
